From patent publication US11932877B2, “Human fibrolamellar hepatocellular carcinomas (hFL-HCCs)” (priority 2015, dated 2024)
Entries after “also recorded” stand apart in the source; their conditions may differ.

Assays:
hFL-HCC = test: Treatment of the hFL-HCC patient from whom TU-2010 was derived; format: in vivo, human; conditions: for clinical response of the patient's tumor: one patient, metastatic hFL-HCC; for disease course under treatment / tolerability in the patient: Paclitaxel and thalidomide given together, chosen from sensitivity studies
hFL-HCC cells of TU-2010 [1] = test: Spheroid formation assay; format: cell-based, human; conditions: spheroids in serum-free Kubota's Medium, low attachment plates
Experimental: For secondary spheroid formation assays, the 1st spheroids were collected, subsequently dissociated with NeuroCult Chemical Dissociation Kit ([…] Technologies). Cell suspension was centrifuged at 700 rpm 10 min and resuspended with KM. After 2 weeks, the number of spheroids (100 μm>) were counted.

hFL-HCC cells of TU-2010 [2] = test: Cell proliferation assay (WST-1) on monolayer cultures of hFL-HCC cells; format: cell-based, human
Experimental: For cell proliferation assays, 3×10^4 hFL-HCC cells of TU-2010 were depleted of host mesenchymal cells by magnetic sorting of xenotransplantable tumor cell suspension and then were seeded into each well of a 96-well plate and cultured overnight with Kubota's Medium+5% FBS. […] Cell proliferation was evaluated using the Cell Proliferation Reagent WST-1 (Roche Applied Science, Mannheim, Germany). After incubation at 37° C. for 2 hours, the absorbance at 450 nm was measured.

Molecule: O=c1[nH]cc(F)c(=O)[nH]1 [5-FU]
- clinical response of the patient's tumor (hFL-HCC): limited or no response

Molecule: CC(=O)O[C@H]1C(=O)[C@@]2(C)[C@H]([C@H](OC(=O)c3ccccc3)[C@]3(O)C[C@H](OC(=O)[C@H](O)[C@@H](NC(=O)c4ccccc4)c4ccccc4)C(C)=C1C3(C)C)[C@]1(OC(C)=O)CO[C@@H]1C[C@@H]2O [Paclitaxel]
- disease course under treatment (hFL-HCC): continued disease progression
- tolerability in the patient (hFL-HCC): poorly tolerated

Molecule: O=C(CCCCCCC(=O)NO)NO [SBHA, suberic bis-hydroxamic acid]
- suppression of hFL-HCC survival and growth in spheroid cultures compared with monolayer cultures (hFL-HCC cells of TU-2010 [1]): even more sensitive to inhibition
- inhibitory effect on hFL-HCC cell survival and growth (hFL-HCC cells of TU-2010 [2]; 10 μM and 20 μM, drug added for 3 days): strong inhibitory effects
- inhibition of hFL-HCC cell growth (hFL-HCC cells of TU-2010 [2]; 10 μM and 50 μM): strongly inhibited

Molecule: CNC(=O)c1cc(Oc2ccc(NC(=O)Nc3ccc(Cl)c(C(F)(F)F)c3)cc2)ccn1 [sorafenib]
- clinical response of the patient's tumor (hFL-HCC): limited or no response

Molecule: O=C1CCC(N2C(=O)c3ccccc3C2=O)C(=O)N1 (centres unmarked) [thalidomide]
- disease course under treatment (hFL-HCC): continued disease progression
- tolerability in the patient (hFL-HCC): poorly tolerated
- clinical response of the patient's tumor (hFL-HCC): limited or no response

Molecule: O=C(CCCCCCC(=O)Nc1ccccc1)NO [SAHA, suberoylanilide hydroxamic acid]
- suppression of hFL-HCC survival and growth in spheroid cultures compared with monolayer cultures (hFL-HCC cells of TU-2010 [1]): even more sensitive to inhibition

Molecule: Nc1ccn([C@@H]2O[C@H](CO)[C@@H](O)C2(F)F)c(=O)n1 [gemcitabine]
- clinical response of the patient's tumor (hFL-HCC): limited or no response

Molecule: bevacizumab
- clinical response of the patient's tumor (hFL-HCC): limited or no response

Molecule: CS(=O)(=O)c1ccc(C(=O)Nc2ccc(Cl)c(-c3ccccn3)c2)c(Cl)c1 [GDC-0449, Vismodegib]
- suppression of hFL-HCC survival and growth in spheroid cultures compared with monolayer cultures (hFL-HCC cells of TU-2010 [1]): even more sensitive to inhibition; also recorded: far more effective
- suppression of survival and proliferation (growth) of hFL-HCC cells (hFL-HCC cells of TU-2010 [2]; 4 μM and especially 20 μM, drug added for 3 days): strongly inhibited; also recorded: suppress survival and proliferation

Molecule: N.N.[Cl][Pt][Cl] [cisplatinum]
- clinical response of the patient's tumor (hFL-HCC): limited or no response

Molecule: COc1cccc2c1C(=O)c1c(O)c3c(c(O)c1C2=O)C[C@@](O)(C(=O)CO)C[C@@H]3O[C@H]1C[C@H](N)[C@H](O)[C@H](C)O1 [doxorubicin]
- clinical response of the patient's tumor (hFL-HCC): limited or no response
